Measured values taken from patent US20240246942A1, “KINASE INHIBITORS FOR THE TREATMENT OF NEURODEGENERATIVE DISEASES” (priority 2020, published 2024).

Legend:
Experiment in all cases: biochemical
[1] = target: T1, panel of 374 wild-type kinases (Homo sapiens, UniProt Q96BR1); details: read-out: % Enzyme Activity (relative to DMSO controls), kinase SGK3/SGKL
T1 construct: purchased Reaction Biology Corporation
T1 sequence (Q96BR1 1-496): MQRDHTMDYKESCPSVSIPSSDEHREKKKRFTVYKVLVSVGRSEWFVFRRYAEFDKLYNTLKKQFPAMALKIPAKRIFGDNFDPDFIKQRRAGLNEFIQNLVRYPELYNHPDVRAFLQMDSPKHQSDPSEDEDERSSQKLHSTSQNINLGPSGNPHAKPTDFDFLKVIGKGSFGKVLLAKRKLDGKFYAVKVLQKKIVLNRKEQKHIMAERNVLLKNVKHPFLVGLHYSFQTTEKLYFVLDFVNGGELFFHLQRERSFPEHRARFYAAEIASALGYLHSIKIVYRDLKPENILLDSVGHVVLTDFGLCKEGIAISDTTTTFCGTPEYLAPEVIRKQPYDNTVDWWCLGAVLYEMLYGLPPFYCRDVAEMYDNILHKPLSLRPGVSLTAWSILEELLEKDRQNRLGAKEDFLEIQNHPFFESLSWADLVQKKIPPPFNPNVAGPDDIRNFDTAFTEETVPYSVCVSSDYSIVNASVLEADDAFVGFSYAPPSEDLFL

[2] = target: T2, panel of 374 wild-type kinases (Homo sapiens, UniProt Q8IWQ3); details: read-out: % Enzyme Activity (relative to DMSO controls), BRSK2
T2 construct: purchased Reaction Biology Corporation
T2 sequence (Q8IWQ3 1-736): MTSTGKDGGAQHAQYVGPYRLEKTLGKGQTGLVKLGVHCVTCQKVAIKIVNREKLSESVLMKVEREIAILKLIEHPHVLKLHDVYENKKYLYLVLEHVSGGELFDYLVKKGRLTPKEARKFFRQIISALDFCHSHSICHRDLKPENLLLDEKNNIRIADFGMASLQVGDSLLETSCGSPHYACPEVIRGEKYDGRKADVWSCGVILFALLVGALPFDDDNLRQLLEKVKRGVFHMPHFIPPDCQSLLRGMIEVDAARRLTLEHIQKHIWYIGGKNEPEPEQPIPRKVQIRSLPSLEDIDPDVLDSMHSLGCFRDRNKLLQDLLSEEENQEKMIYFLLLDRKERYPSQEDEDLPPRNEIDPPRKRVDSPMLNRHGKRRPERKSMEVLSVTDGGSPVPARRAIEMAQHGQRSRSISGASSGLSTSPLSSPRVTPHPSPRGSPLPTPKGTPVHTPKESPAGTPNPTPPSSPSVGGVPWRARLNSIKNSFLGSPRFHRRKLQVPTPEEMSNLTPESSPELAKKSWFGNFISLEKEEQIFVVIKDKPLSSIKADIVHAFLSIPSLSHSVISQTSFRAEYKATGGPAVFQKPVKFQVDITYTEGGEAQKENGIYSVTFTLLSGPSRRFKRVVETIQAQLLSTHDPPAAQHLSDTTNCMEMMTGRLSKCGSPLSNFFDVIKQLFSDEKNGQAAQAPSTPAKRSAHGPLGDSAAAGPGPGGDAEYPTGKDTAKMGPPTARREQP

[3] = target: T3, panel of 374 wild-type kinases (Homo sapiens, UniProt P41279); details: read-out: % Enzyme Activity (relative to DMSO controls), COT1/MAP3K8
T3 construct: purchased Reaction Biology Corporation
T3 sequence (P41279 whole entry): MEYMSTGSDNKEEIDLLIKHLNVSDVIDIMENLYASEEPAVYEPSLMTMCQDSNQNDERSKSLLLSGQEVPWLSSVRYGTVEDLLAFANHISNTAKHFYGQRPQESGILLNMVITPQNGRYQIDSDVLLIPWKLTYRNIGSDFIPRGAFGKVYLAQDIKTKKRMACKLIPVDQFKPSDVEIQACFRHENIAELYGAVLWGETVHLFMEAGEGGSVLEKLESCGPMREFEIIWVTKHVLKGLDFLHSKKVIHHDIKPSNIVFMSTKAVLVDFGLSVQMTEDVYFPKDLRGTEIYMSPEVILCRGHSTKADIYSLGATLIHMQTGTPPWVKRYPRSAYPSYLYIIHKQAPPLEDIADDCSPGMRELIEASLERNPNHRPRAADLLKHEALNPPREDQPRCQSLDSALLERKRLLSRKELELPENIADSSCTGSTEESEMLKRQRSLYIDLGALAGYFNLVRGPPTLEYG

[4] = target: T4, panel of 374 wild-type kinases (Homo sapiens, UniProt P27448); details: read-out: % Enzyme Activity (relative to DMSO controls), MARK3
T4 construct: purchased Reaction Biology Corporation
T4 sequence (P27448 whole entry): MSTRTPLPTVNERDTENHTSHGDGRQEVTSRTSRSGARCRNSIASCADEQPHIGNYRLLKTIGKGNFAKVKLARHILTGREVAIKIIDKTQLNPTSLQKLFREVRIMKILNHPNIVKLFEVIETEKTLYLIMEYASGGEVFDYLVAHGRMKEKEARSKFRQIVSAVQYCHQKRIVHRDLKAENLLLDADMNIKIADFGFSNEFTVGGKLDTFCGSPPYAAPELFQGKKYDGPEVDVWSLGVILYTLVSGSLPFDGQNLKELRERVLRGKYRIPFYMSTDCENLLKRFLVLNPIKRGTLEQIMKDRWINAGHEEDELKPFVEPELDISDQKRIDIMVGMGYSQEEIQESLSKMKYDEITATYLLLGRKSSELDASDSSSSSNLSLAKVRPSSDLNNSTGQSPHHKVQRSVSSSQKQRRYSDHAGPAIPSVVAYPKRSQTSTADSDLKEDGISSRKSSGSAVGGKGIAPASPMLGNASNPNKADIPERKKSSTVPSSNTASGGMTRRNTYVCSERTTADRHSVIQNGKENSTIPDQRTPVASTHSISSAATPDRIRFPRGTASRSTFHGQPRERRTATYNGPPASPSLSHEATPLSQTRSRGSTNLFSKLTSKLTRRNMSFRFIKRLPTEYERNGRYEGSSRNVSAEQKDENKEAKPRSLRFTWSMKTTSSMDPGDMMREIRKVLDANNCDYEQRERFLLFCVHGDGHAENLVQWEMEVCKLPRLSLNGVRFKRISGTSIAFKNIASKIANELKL

[5] = target: T5, panel of 374 wild-type kinases (Homo sapiens, UniProt Q16620); details: read-out: % Enzyme Activity (relative to DMSO controls), kinase TRKB
T5 construct: purchased Reaction Biology Corporation
T5 sequence (Q16620 32-822): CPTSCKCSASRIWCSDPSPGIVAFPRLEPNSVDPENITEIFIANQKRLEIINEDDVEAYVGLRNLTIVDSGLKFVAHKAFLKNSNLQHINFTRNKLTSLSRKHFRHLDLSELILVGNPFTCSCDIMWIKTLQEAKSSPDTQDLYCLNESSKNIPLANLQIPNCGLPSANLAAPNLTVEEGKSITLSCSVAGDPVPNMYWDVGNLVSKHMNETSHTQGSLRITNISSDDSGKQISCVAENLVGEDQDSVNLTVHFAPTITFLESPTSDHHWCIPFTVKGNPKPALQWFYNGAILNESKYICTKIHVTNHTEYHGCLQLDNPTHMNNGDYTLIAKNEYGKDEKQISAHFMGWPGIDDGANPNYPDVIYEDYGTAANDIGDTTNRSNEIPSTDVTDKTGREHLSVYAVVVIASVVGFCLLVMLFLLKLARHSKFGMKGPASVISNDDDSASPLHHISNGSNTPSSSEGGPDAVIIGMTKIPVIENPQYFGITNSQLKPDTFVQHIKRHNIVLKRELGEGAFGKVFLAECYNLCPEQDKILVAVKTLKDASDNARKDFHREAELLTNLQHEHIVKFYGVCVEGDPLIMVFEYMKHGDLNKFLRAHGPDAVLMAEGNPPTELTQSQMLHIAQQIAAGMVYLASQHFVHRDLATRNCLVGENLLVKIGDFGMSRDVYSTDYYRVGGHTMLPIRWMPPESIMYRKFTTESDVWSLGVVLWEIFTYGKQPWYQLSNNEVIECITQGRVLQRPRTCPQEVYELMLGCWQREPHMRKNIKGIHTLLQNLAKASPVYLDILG

[6] = target: T6, panel of 374 wild-type kinases (Homo sapiens, UniProt P21802); details: read-out: % Enzyme Activity (relative to DMSO controls), FGFR2
T6 construct: purchased Reaction Biology Corporation
T6 sequence (P21802 22-821): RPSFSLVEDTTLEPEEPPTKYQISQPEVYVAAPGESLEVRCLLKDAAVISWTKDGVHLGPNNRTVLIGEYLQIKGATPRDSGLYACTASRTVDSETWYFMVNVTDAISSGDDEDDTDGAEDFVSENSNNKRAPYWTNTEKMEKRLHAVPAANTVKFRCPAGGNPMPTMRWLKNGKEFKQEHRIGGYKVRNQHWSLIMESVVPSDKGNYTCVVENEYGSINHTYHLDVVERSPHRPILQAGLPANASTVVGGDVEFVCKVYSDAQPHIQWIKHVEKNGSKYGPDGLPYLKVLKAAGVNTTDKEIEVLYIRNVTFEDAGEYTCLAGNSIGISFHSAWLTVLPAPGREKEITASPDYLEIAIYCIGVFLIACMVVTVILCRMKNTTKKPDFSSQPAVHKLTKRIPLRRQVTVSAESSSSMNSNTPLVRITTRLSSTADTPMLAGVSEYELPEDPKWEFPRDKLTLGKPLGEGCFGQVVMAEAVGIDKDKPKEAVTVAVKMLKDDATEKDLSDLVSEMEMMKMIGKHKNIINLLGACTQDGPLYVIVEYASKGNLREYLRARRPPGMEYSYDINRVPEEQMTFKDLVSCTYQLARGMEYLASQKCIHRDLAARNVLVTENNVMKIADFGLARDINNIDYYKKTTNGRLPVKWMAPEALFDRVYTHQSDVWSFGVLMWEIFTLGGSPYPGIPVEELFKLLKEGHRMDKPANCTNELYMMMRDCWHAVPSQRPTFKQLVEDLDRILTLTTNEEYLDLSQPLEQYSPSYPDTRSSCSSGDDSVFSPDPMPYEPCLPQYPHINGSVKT

[7] = target: T7, panel of 374 wild-type kinases (Homo sapiens, UniProt P41240); details: read-out: % Enzyme Activity (relative to DMSO controls), CSK
T7 construct: purchased Reaction Biology Corporation
T7 sequence (P41240 whole entry): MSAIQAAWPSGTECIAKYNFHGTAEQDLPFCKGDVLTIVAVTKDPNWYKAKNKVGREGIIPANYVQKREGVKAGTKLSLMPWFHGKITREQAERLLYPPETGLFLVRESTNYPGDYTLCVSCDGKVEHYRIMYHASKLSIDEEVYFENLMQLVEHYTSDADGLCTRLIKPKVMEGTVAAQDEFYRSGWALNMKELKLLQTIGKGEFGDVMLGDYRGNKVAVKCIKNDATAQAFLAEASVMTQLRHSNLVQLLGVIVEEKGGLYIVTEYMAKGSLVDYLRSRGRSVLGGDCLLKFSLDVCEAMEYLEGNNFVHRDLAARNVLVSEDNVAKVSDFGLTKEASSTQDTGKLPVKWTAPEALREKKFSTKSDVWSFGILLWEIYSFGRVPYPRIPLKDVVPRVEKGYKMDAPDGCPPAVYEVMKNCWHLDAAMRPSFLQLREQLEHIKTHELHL

[8] = target: T8, panel of 374 wild-type kinases (Homo sapiens, UniProt Q8IVT5); details: read-out: % Enzyme Activity (relative to DMSO controls), KSR1
T8 construct: purchased Reaction Biology Corporation
T8 sequence (Q8IVT5 1-923): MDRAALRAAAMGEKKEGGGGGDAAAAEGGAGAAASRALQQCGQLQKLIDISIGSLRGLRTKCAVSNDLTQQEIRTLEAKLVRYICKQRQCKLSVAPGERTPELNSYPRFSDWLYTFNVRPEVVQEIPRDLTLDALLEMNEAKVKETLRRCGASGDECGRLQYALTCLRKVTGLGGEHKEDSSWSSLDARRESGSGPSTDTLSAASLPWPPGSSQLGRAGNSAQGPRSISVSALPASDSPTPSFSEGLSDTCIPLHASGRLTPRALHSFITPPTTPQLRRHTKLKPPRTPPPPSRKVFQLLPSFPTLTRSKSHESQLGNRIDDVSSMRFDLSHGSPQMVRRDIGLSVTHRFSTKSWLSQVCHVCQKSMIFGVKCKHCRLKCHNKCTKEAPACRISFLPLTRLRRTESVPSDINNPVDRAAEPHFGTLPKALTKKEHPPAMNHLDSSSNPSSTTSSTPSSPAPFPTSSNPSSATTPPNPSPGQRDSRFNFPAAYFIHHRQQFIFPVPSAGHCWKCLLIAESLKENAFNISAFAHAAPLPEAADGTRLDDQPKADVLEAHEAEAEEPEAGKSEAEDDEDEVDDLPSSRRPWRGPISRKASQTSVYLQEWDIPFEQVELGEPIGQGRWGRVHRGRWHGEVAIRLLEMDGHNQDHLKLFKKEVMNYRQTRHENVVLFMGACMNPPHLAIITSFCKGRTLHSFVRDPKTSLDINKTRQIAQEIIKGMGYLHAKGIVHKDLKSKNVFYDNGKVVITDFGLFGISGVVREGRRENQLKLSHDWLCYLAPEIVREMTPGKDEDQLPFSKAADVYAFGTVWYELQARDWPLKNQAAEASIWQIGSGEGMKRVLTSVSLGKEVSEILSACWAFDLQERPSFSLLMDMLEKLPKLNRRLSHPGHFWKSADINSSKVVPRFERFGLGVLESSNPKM

Row | SMILES | remaining activity at 10 µM ([1]; 10 uM) [%] | remaining activity at 10 µM ([2]; 10 uM) [%] | remaining activity at 10 µM ([3]; 10 uM) [%] | remaining activity at 10 µM ([4]; 10 uM) [%] | remaining activity at 10 µM ([5]; 10 uM) [%] | remaining activity at 10 µM ([6]; 10 uM) [%] | remaining activity at 10 µM ([7]; 10 uM) [%] | remaining activity at 10 µM ([8]; 10 uM) [%] | remaining activity at 5 µM [1] [%] | remaining activity at 5 µM [2] [%] | remaining activity at 5 µM [3] [%] | remaining activity at 5 µM [4] [%] | remaining activity at 5 µM [5] [%] | remaining activity at 5 µM [6] [%] | remaining activity at 5 µM [7] [%] | remaining activity at 5 µM [8] [%]
1 | Cc1sc(C(=O)NC2COC2)cc1-n1cc(NC(=O)Nc2c(F)cccc2Cl)cn1 [Compound 27, 4-(4-(3-(2-chloro-6-fluorophenyl)ureido)-1H-pyrazol-1-yl)-5-methyl-N-(oxetan-3-yl)thiophene-2-carboxamide] | 90.1 | 102 | 105 | 102 | 92.4 | 106 | 98 | 103 | – | – | – | – | – | – | – | –
2 | O=C(Nc1cnn(-c2csc(C(=O)NC3COC3)c2)c1)Nc1c(F)cccc1Cl [Compound 25, 4-(4-(3-(2-chloro-6-fluorophenyl)ureido)-1H-pyrazol-1-yl)-N-(oxetan-3-yl)thiophene-2-carboxamide] | – | – | – | – | – | – | – | – | 95.3 | 100 | 93.6 | 99.3 | 91.5 | 103 | 97.5 | 105
3 | O=C(Nc1cnn(-c2csc(C(=O)NC3COC3)c2)c1)Nc1ccccc1Cl [Compound 17, 4-(4-(3-(2-chlorophenyl)ureido)-1H-pyrazol-1-yl)-N-(oxetan-3-yl)thiophene-2-carboxamide] | – | – | – | – | – | – | – | – | 93.8 | 102 | 92.7 | 98.2 | 84.2 | 95.6 | 99.2 | 101
